Assay results taken from patent publication US20240190880A1 (THE REGENTS OF THE UNIVERSITY OF MICHIGAN, priority 2021, published 2024).

Target: T1, ER (Homo sapiens, UniProt P03372)
T1 construct: host or cells: T47D and MCF7 human breast cancer cells
T1 sequence (P03372 1-595): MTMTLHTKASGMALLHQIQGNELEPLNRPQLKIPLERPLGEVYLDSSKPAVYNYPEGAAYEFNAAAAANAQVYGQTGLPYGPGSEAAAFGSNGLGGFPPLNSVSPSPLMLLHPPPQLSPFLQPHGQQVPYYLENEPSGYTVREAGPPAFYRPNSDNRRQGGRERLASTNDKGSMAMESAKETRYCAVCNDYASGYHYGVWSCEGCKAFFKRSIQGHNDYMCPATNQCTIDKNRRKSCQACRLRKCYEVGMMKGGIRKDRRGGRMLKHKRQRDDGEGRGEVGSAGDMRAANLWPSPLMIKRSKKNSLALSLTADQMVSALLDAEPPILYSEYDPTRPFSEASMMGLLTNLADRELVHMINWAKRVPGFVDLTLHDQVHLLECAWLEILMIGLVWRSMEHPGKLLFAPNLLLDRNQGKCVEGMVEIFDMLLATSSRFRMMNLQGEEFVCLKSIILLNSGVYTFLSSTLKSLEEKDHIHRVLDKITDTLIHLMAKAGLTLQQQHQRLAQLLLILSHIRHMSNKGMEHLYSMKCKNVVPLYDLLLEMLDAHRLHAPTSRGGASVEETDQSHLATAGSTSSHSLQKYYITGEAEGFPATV
Assay: ER degradation activity, in-cell western blot analysis in T47D cells
Assay type: cell-based
Conditions: 16 hours, Table A does not say which cell line (T47D or MCF7), read-out: Potency (DC50)
Summary of the method: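 Read-out is near-infrared fluorescence from an in-cell western, expressed as ER percentage relative to untreated and DMSO controls taken as 100%. T47D breast cancer cells received compound for 16 h in 0.5% DMSO.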

First: O=C1CCC(N2Cc3cc4c(cc3C2=O)CN(C(=O)C2CCC(NC3CN(c5ccc([C@@H]6c7ccc(O)cc7CC[C@@H]6c6ccccc6)cc5)C3)CC2)C4)C(=O)N1 (stereo partly drawn) [E 359, 3-(6-(4-((1-(4-((1R,2S)-6-hydroxy-2-phenyl-1,2,3,4-tetrahydronaphthalen-1-yl)phenyl)azetidin-3-yl)amino)cyclohexane-1-carbonyl)-1-oxo-3,5,6,7-tetrahydropyrrolo[3,4-f]isoindol-2(1H)-yl)piperidine-2,6-dione]
Second: O=C1CCC(N2Cc3cc4c(cc3C2=O)CN(C(=O)[C@H]2CC[C@H](N3CC(Oc5ccc([C@@H]6c7ccc(O)cc7CC[C@@H]6c6ccccc6)cc5)C3)CC2)C4)C(=O)N1 (single isomer, unassigned) [E 357]
The DC50 of the first is higher: 10 to 100 nM for the first, < 10 nM for the second.

`O=C1CCC(N2C(=O)c3cc4c(cc3C2=O)CN(CC2CN(C(=O)C3CN(c5ccc([C@@H]6c7ccc(O)cc7CC[C@@H]6c6ccccc6)cc5)C3)C2)C4)C(=O)N1` (stereo partly drawn) [E 200, 2-(2,6-dioxopiperidin-3-yl)-6-((1-(1-(4-((1R,2S)-6-hydroxy-2-phenyl-1,2,3,4-tetrahydronaphthalen-1-yl)phenyl)azetidine-3-carbonyl)azetidin-3-yl)methyl)-6,7-dihydropyrrolo[3,4-f]isoindole-1,3(2H,5H)-dione] and `O=C1CCC(N2C(=O)c3cc4c(cc3C2=O)CN(C2CCC(C(=O)N3CCN(c5ccc([C@@H]6c7ccc(O)cc7CC[C@@H]6c6ccccc6)cc5)CC3)CC2)C4)C(=O)N1` (stereo partly drawn) [E 291, 2-(2,6-dioxopiperidin-3-yl)-6-(4-(4-(4-((1R,2S)-6-hydroxy-2-phenyl-1,2,3,4-tetrahydronaphthalen-1-yl)phenyl)piperazine-1-carbonyl)cyclohexyl)-6,7-dihydropyrrolo[3,4-f]isoindole-1,3(2H,5H)-dione] cannot be ordered by DC50: > 100 nM for the first, > 100 nM for the second.

`O=C1CCC(N2C(=O)c3cc4c(cc3C2=O)CN(CC(=O)N2CCC3(CC2)CCN(c2ccc(C(=C(CCCl)c5ccccc5)c5ccc(O)cc5)cc2)C3)C4)C(=O)N1` (centres unmarked) [E 190, 6-(2-(2-(4-(4-chloro-1-(4-hydroxyphenyl)-2-phenylbut-1-en-1-yl)phenyl)-2,8-diazaspiro[4.5]decan-8-yl)-2-oxoethyl)-2-(2,6-dioxopiperidin-3-yl)-6,7-dihydropyrrolo[3,4-f]isoindole-1,3(2H,5H)-dione] and `O=C1CCC(N2C(=O)c3cc4c(cc3C2=O)CN(CCN2CCC3(CC2)CCN(c2ccc([C@@H]5c6ccc(O)cc6CC[C@@H]5c5ccccc5)cc2)CC3)C4)C(=O)N1` (mixture of isomers) [E 268, rac-2-(2,6-dioxopiperidin-3-yl)-6-(2-(9-(4-((1R,2S)-6-hydroxy-2-phenyl-1,2,3,4-tetrahydronaphthalen-1-yl)phenyl)-3,9-diazaspiro[5.5]undecan-3-yl)ethyl)-6,7-dihydropyrrolo[3,4-f]isoindole-1,3(2H,5H)-dione] fall in the same range of DC50: 10 to 100 nM for the first, 10 to 100 nM for the second.

First: C[C@@H]1Cc2c([nH]c3ccccc23)[C@@H](c2c(F)cc(N3CCCC4(CCN(C(=O)CN5Cc6cc7c(cc6C5)C(=O)N(C5CCC(=O)NC5=O)C7)C4)C3)cc2F)N1CC(F)F (stereo partly drawn) [E 67, 3-(6-(2-(7-(4-((1R,3R)-2-(2,2-difluoroethyl)-3-methyl-2,3,4,9-tetrahydro-1H-pyrido[3,4-b]indol-1-yl)-3,5-difluorophenyl)-2,7-diazaspiro[4.5]decan-2-yl)-2-oxoethyl)-1-oxo-3,5,6,7-tetrahydropyrrolo[3,4-f]isoindol-2(1H)-yl)piperidine-2,6-dione]
Second: C[C@@H]1Cc2cc(O)ccc2[C@@H](c2c(F)cc(N3CC4(CCN(C(=O)CN5Cc6cc7c(cc6C5)C(=O)N(C5CCC(=O)NC5=O)C7)C4)C3)cc2F)N1CC(F)F (stereo partly drawn) [E 36, 3-(6-(2-(2-(4-((1S,3R)-2-(2,2-difluoroethyl)-6-hydroxy-3-methyl-1,2,3,4-tetrahydroisoquinolin-1-yl)-3,5-difluorophenyl)-2,6-diazaspiro[3.4]octan-6-yl)-2-oxoethyl)-1-oxo-3,5,6,7-tetrahydropyrrolo[3,4-f]isoindol-2(1H)-yl)piperidine-2,6-dione]
The DC50 of the first is higher: 10 to 100 nM for the first, < 10 nM for the second.

First: C[C@@H]1Cc2c([nH]c3ccccc23)[C@@H](c2ccc(N3CCC4(CC3)CN(C(=O)CN3Cc5cc6c(cc5C3)C(=O)N(C3CCC(=O)NC3=O)C6=O)C4)cc2)N1CC(F)F (stereo partly drawn) [E 262, 6-(2-(7-(4-((1R,3R)-2-(2,2-difluoroethyl)-3-methyl-2,3,4,9-tetrahydro-1H-pyrido[3,4-b]indol-1-yl)phenyl)-2,7-diazaspiro[3.5]nonan-2-yl)-2-oxoethyl)-2-(2,6-dioxopiperidin-3-yl)-6,7-dihydropyrrolo[3,4-f]isoindole-1,3(2H,5H)-dione]
Second: C[C@@H]1Cc2cc(O)ccc2[C@@H](c2c(F)cc(N3CCC4(CC3)CN(C(=O)CN3Cc5cc6c(cc5C3)C(=O)N(C3CCC(=O)NC3=O)C6=O)C4)cc2F)N1CC(F)F (stereo partly drawn) [E 41, 6-(2-(7-(4-((1S,3R)-2-(2,2-difluoroethyl)-6-hydroxy-3-methyl-1,2,3,4-tetrahydroisoquinolin-1-yl)-3,5-difluorophenyl)-2,7-diazaspiro[3.5]nonan-2-yl)-2-oxoethyl)-2-(2,6-dioxopiperidin-3-yl)-6,7-dihydropyrrolo[3,4-f]isoindole-1,3(2H,5H)-dione]
The DC50 of the first is higher: 10 to 100 nM for the first, < 10 nM for the second.

`O=C1CCC(N2Cc3cc4c(cc3C2=O)CN(C2CCN(CC3CN(c5ccc([C@@H]6c7ccc(O)cc7CC[C@@H]6c6ccccc6)cc5)C3)CC2)C4)C(=O)N1` (stereo partly drawn) [E 294, 3-(6-(1-((1-(4-((1R,2S)-6-hydroxy-2-phenyl-1,2,3,4-tetrahydronaphthalen-1-yl)phenyl)azetidin-3-yl)methyl)piperidin-4-yl)-1-oxo-3,5,6,7-tetrahydropyrrolo[3,4-f]isoindol-2(1H)-yl)piperidine-2,6-dione] and `O=C1CCC(N2C(=O)c3cc4c(cc3C2=O)CN([C@H]2CC[C@@H](NC3CN(c5ccc([C@@H]6c7ccc(O)cc7CC[C@@H]6c6ccccc6)cc5)C3)CC2)C4)C(=O)N1` (stereo partly drawn) [E 340, 2-(2,6-dioxopiperidin-3-yl)-6-((1S,4s)-4-((1-(4-((1R,2S)-6-hydroxy-2-phenyl-1,2,3,4-tetrahydronaphthalen-1-yl)phenyl)azetidin-3-yl)amino)cyclohexyl)-6,7-dihydropyrrolo[3,4-f]isoindole-1,3(2H,5H)-dione] cannot be ordered by DC50: > 100 nM for the first, > 100 nM for the second.

Compared with `C[C@@H]1Cc2c([nH]c3ccccc23)[C@@H](c2c(F)cc(N3CC(F)(C(=O)N4CCC(CN5Cc6cc7c(cc6C5)C(=O)N(C5CCC(=O)NC5=O)C7=O)CC4)C3)cc2F)N1CC(F)F` (stereo partly drawn) [E 209, 6-((1-(1-(4-((1R,3R)-2-(2,2-difluoroethyl)-3-methyl-2,3,4,9-tetrahydro-1H-pyrido[3,4-b]indol-1-yl)-3,5-difluorophenyl)-3-fluoroazetidine-3-carbonyl)piperidin-4-yl)methyl)-2-(2,6-dioxopiperidin-3-yl)-6,7-dihydropyrrolo[3,4-f]isoindole-1,3(2H,5H)-dione], `C[C@@H]1Cc2c([nH]c3ccccc23)[C@@H](c2c(F)cc(C(=O)N3CCC4(CC3)CC(CN3Cc5cc6c(cc5C3)C(=O)N(C3CCC(=O)NC3=O)C6=O)C4)cc2F)N1CC(F)F` (stereo partly drawn) [E 369, 6-((7-(4-((1R,3R)-2-(2,2-difluoroethyl)-3-methyl-2,3,4,9-tetrahydro-1H-pyrido[3,4-b]indol-1-yl)-3,5-difluorobenzoyl)-7-azaspiro[3.5]nonan-2-yl)methyl)-2-(2,6-dioxopiperidin-3-yl)-6,7-dihydropyrrolo[3,4-f]isoindole-1,3(2H,5H)-dione] is higher in DC50: 10 to 100 nM for the first, > 100 nM for the second.

Same assay, conditions: compounds 16 hours, Table A does not say whether T47D or MCF7, read-out: Potency (DC50)

`O=C1CCC(N2Cc3cc4c(cc3C2=O)CN(C[C@H]2CC[C@H](C(=O)N3CC(Oc5ccc([C@@H]6c7ccc(O)cc7CC[C@@H]6c6ccccc6)cc5)C3)CC2)C4)C(=O)N1` (mixture of isomers) [E 499, 3-(6-(((IRS,4SR)-4-(3-(4-((1R,2S)-6-hydroxy-2-phenyl-1,2,3,4-tetrahydronaphthalen-1-yl)phenoxy)azetidine-1-carbonyl)cyclohexyl)methyl)-1-oxo-3,5,6,7-tetrahydropyrrolo[3,4-f]isoindol-2(1H)-yl)piperidine-2,6-dione] and `O=C1CCC(N2C(=O)c3cc4c(cc3C2=O)CN(CC(=O)N2CCC(Oc3ccc([C@@H]5c6ccc(O)cc6CC[C@@H]5c5ccccc5)cc3)CC2)C4)C(=O)N1` (stereo partly drawn) [E 489, 2-(2,6-dioxopiperidin-3-yl)-6-(2-(4-(4-((1R,2S)-6-hydroxy-2-phenyl-1,2,3,4-tetrahydronaphthalen-1-yl)phenoxy)piperidin-1-yl)-2-oxoethyl)-6,7-dihydropyrrolo[3,4-f]isoindole-1,3(2H,5H)-dione] fall in the same range of DC50: 10 to 100 nM for the first, 10 to 100 nM for the second.

With `C[C@@H]1Cc2c([nH]c3ccccc23)[C@@H](c2cnc(N3CC4(CCC(CN5Cc6cc7c(cc6C5)C(=O)N(C5CCC(=O)NC5=O)C7=O)CC4)C3)nc2)N1CC(F)(F)CO` (stereo partly drawn) [E 513, 6-((2-(5-((1R,3R)-2-(2,2-difluoro-3-hydroxypropyl)-3-methyl-2,3,4,9-tetrahydro-1H-pyrido[3,4-b]indol-1-yl)pyrimidin-2-yl)-2-azaspiro[3.5]nonan-7-yl)methyl)-2-(2,6-dioxopiperidin-3-yl)-6,7-dihydropyrrolo[3,4-f]isoindole-1,3(2H,5H)-dione] the DC50 was 10 to 100 nM.
